The values that follow come from patent US8685726B2, “Small molecules supporting pluripotent cell growth and methods thereof” (Viacyte, Inc., priority 2009, dated 2014).

For data set [1], the system named is CyT49 cells. Put plainly: Suspension aggregate culture, cell counts and aggregate diameters. The class given is cell-based, human. The following applies: for serial passages maintained in suspension with undifferentiated morphology: suspension culture, 50 μM. The procedure: FIG. 10. Effects of NE and ACh in suspension culture of hES cell. (A) 5×10^6 CyT49 cells were seeded in 5 ml StemPro® hESC SFM containing heregulin, LR3-IGF1, Activin and the indicated neurotransmitters at 50 μM in low-attachment 6-well trays and placed at 100 rpm. Undifferentiated suspension aggregates were imaged on day 4. (B) 24 hours after seeding, two wells from each condition were harvested and counted to determine the number of viable cells. (C) Cell counts of each condition when the cultures were split on day 4. (D) The images in (A) were used to determine aggregate diameters using the ImagePro software measurement tool. Average diameters and standard deviations from 50-100 aggregates from each condition are shown. (E) Passage 1 cell counting data. 5×10^6 CyT49 hES cells from p0 cells in (A) were seeded into the same conditions. The aggregates in the condition containing Y27632 were larger and had to be passaged 3 days after seeding, before the centers of the largest aggregates became necrotic. Conversely, the other conditions could be cultured for 6 days before passaging, resulting in higher cell counts.
(§1) FIG. 11. Suspension hES cell cultured with NE, […] remain undifferentiated. CyT49 cells were grown as suspension aggregates in the presence of NE, […] for 16 passages without differentiating morphologically. After p10, some cells were re-plated to adherent culture and examined by karyotyping and immunofluorescent staining for OCT4 and Tra-1-61. All cultures remained undifferentiated and expressed these pluripotency markers uniformly. (SP) StemPro® SFM HIA, NE (+NE at 50 μM), ACh (+ACh at 50 μM), NE/ACh (+NE/ACh at 50 μM). Karyotype data is shown to the right. […] Cultures containing ACh were aneuploid.
Small molecule ligands that support survival or self-renewal at low cell densities could also be expected to have beneficial effects in other culture formats. Applicants have previously developed a suspension culture system for hES cells that enables serial propagation of cells and effective expansion of cultures. Human ES cells, at least BG02 and CyT49 cells, have been maintained in suspension for greater than 10 passages without differentiation. The basis of the technique is to dissociate cultures to single cells with reagents that preserve high viability, such as Accutase™, TrypLE or cell dispersal buffer, then aggregate defined concentrations of cells in defined medium in rotational culture. These methods are described in more detail in International Application PCT/US2008/082356, entitled STEM CELL AGGREGATE SUSPENSION COMPOSITIONS AND METHODS OF DIFFERENTIATION THEREOF, filed Nov. 4, 2008; and International Application PCT/US2007/062755, entitled COMPOSITIONS AND METHODS FOR CULTURING DI[…], filed Feb. 23, 2007, which are herein incorporated by reference in their entireties. Self-aggregation of hES cells occurs in the absence of added extracellular matrix (ECM) or ECM-like proteins and is presumed to be driven in part by homotypic interaction of E-cadherin. The aggregates that are formed expand over 3-4 days and are kept apart from each other by the shear forces generated by rotational culture. Cells are blocked from differentiating by the self-renewal signaling provided by the defined medium and retain their pluripotent characteristics: marker expression, normal karyotype, and differentiation potential in vitro and in teratomas. […]

Data set [2] relates to CyT49 cells. Kind of data set: Karyotyping (G-banding) of replated suspension cultures after 10 passages. It counts as cell-based, human. The conditions noted are these: after 10 passages in suspension, G-banded. Here is the method:
as §1
To examine these possibilities, these cultures were serially passaged to p1 (FIG. 10E). Because Y27632 treated aggregates were of a larger size, they required passaging after only 3 days, and only generated about 1.2×10^7 cells during that period. In contrast, the cultures containing NE, ACh or NE/ACh were cultured for 6 days and generated greater than 2×10^7 cells per well. Suspension cultures containing NE, ACh or NE/ACh were maintained for 12 serial passages, in parallel with a HAIF control culture, and all conditions maintained an undifferentiated morphology throughout. Suspension aggregates were dissociated to single cells after 10 passages and replated to adherent culture for analyses. […] Replated cultures were also G-banded to determine their karyotype.

“Also recorded” adds a separate entry of the source.

`NCC(O)c1ccc(O)c(O)c1` (racemic) [NE, (±)-Norepinephrine (+)-bitartrate]: the “serial passages maintained in suspension with undifferentiated morphology” value in data set [1] is given as 12 serial passages. Further, in data set [1] (suspension, StemPro hESC SFM HIA, neurotransmitters 50 μM), the “aggregate size on day 4” value is listed as “smaller aggregates”.

As to `CC(=O)OCC[N+](C)(C)C` [ACh, acetylcholine], in data set [2], the karyotype result was “aneuploid or abnormal; also recorded: aneuploid”. Also, the “serial passages maintained in suspension with undifferentiated morphology” value in data set [1] was found to be 12 serial passages.
